# According to patent publication US12281121B2, “N-containing heteroaryl derivative and pharmaceutical composition comprising same as active ingredient for prevention or treatment of cancer” (VORONOI Inc., priority 2019, dated 2025):
# What was measured:
# [1] = system: Ba/F3 KIF5B-RET (V804M) cells; experiment: Cell proliferation inhibition, CellTiter-Glo; type: cell-based; details: Mus musculus, BaF3, 72 hours
# Description: (§1) Among lung cancer cell lines, which express RET fusion genes, LC-2/ad cells were cultured after adding 10% FBS (HyClone) to RPMI:F12 (1:1) (Invitrogen), and F-12 (Invitrogen) supplemented with 10% FBS was used for TT cells. RPMI-1640 supplemented with 10% FBS and 5 ng/ml IL-3 (R&D Systems) was used for Ba/F3 cells. Transduced Ba/F3 cells were cultured by adding 1 ug/ml puromycin (Invitrogen) to the same medium. 24 hours before cells were treated with the compound, 3000 to 5000 cells were aliquoted into each well of a white clear bottom 96 well plate (Corning). The compound was diluted in DMSO (3-fold dilution, a total of 12 concentrations) and the compound was injected by 0.5 μl such that the final concentration was 0.3 nM to 50 μM. For the measurement of living cells, 72 hours after the compound treatment, the cells were stored at room temperature for 10 minutes using a CellTiter-Glo luminescent cell-viability agent (Promega), and then the luminescence intensity was measured using a reader (SynergyNeo, Biotek). Each experiment was repeated in triplicate. The result value was calculated by the cell growth ratio (%) compared to the control. A graph was drawn using the GraphPad Prism version 5.0 program, and a GI50 (nM) value was calculated.
# (§2) In the cell assay column, LC-2/ad (with CCDC6-RET gene) is a lung cancer cell line, a TT cell line ([…]) is a thyroid cancer cell line, Ba/F3 CCDC6-RET (WT), Ba/F3 KIF5B-RET (WT), and Ba/F3 KIF5B-RET (V804M) are cells in which disease-related traits (CCDC6-RET, KIF5B-RET, and KIF5B-RET (V804M)) are introduced into Ba/F3 cells, and Ba/F3 (naive) is a cell which is not transduced.
# RET (WT) = target: T1, RET (WT) (Homo sapiens, UniProt P07949); experiment: RET enzyme inhibitory ability, ADP-Glo kinase assay; type: biochemical; details: ATP 10 μM, 25° C., 1 hour
# T1 construct: human RET (658-end, SIGNALCHEM); purchased SIGNALCHEM
# T1 sequence (P07949 658-1114 limits assumed): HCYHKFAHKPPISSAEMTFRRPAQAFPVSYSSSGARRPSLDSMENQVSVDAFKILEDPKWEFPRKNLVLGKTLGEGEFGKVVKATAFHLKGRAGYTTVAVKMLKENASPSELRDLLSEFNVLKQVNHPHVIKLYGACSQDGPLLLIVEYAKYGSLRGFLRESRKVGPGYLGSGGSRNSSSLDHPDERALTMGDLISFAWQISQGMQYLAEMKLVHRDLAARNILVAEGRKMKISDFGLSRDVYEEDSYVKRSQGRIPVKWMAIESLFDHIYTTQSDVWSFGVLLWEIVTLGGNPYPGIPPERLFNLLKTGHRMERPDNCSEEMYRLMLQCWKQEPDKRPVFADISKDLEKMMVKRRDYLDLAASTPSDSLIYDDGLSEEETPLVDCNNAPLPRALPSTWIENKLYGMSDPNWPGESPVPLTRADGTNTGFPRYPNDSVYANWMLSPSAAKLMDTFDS
# Description: The Example compound was reacted with a purified human RET (658-end, SIGNALCHEM) enzyme to evaluate the enzyme inhibitory ability by the following method. As a reaction buffer, a composition of 40 mM Tris-HCl pH 7.4, 20 mM MgCl2, 0.5 mg/mL BSA, and 50 μM DTT was used, and all experimental materials were reacted on the reaction buffer. After the human RET (658-end, 0.8 ng) enzyme was reacted with purified ATP (10 μM) and a specific substrate solution at 25° C. for 1 hour during the experiment, the enzyme activity was confirmed using in vitro ADP-Glo™ kinase assay (Promega). Luminescence was measured by reacting the enzyme activity reaction solution, the ADP-Glo reaction solution, and the enzyme activity detection solution at a ratio of 2:2:1. The degree of inhibition of enzyme activity according to the treatment concentration of each compound was calculated based on the […] of the enzyme activity of a solvent control group in which a compound was not treated, and in this case, the concentration of each compound which suppresses the […] enzyme activity by 50% was determined as an IC50 (nM) value. The IC50 (nM) of each compound was determined by 3 datasets and obtained using Prism (version 7.01, GraphPad) software.
# In the enzyme assay column, RET (WT) is a non-mutated form, RET (V804M) is a mutated form in which the V amino acid at position 804 of the RET is substituted with M, and CCDC6-RET is a form in which the RET (WT) gene and CCDC6 gene are fused.
# [2] = system: Ba/F3 KIF5B-RET (WT) cells; experiment: Cell proliferation inhibition, CellTiter-Glo; type: cell-based; details: Mus musculus, BaF3, 72 hours
# Description: as §1, §2
# Ba/F3 (naive) cells = experiment: Cell proliferation inhibition, CellTiter-Glo; type: cell-based; details: Mus musculus, BaF3; Ba/F3 not transduced, 72 hours
# Description: as §1, §2
# [3] = system: Ba/F3 CCDC6-RET (WT) cells; experiment: Cell proliferation inhibition, CellTiter-Glo; type: cell-based; details: BaF3/CCDC6-RET, 72 hours
# Description: as §1, §2
Compound,GI50 [1],IC50 (RET (WT)),GI50 [2],GI50 (Ba/F3 (naive) cells),GI50 [3]
"COc1ccc(CN2C(C)CN(c3ccc(-c4nc(Nc5cc(C)[nH]n5)c5ccccc5n4)cn3)C[C@H]2C)cn1 (stereo in doubt) [Example 35, 2-(6-((3R,5S)-4-((6-methoxy-pyridin-3-yl)methyl)-3,5-dimethyl-piperazin-1-yl)pyridin-3-yl)-N-(5-methyl-1H-pyrazol-3-yl)quinazolin-4-amine]",328 nM,–,–,–,–
"Cc1cc(Nc2nc(-c3ccc(N4CC5CC(C4)N5Cc4ncc(C)s4)nc3)nc3ccccc23)n[nH]1 [Example 5, N-(5-methyl-1H-pyrazol-3-yl)-2-(6-(6-((5-methylthiazol-2-yl)methyl)-3,6-diazabicyclo [3.1.1]heptan-3-yl)pyridin-3-yl)quinazolin-4-amine]",4 nM,18 nM,7 nM,1060 nM,41 nM
"COc1ccc(CN2CC3CC(C2)N3c2ccc(-c3nc(Nc4cc(C)[nH]n4)c4ccccc4n3)cn2)cn1 [Example 6, 2-(6-(3-((6-methoxypyridin-3-yl)methyl)-3,6-diazabicyclo [3.1.1]heptan-6-yl)pyridin-3-yl)-N-(5-methyl-1H-pyrazol-3-yl)quinazolin-4-amine]",70 nM,27 nM,67 nM,9220 nM,166 nM
"Cc1cc(Nc2nc(-c3ccc(N4CC5CC(C4)N5Cc4ccc(C(F)(F)F)nc4)nc3)nc3ccccc23)n[nH]1 [Example 8, N-(5-methyl-1H-pyrazol-3-yl)-2-(6-(6-((6-(tri-fluoromethyl)py-ridin-3-yl)meth-yl)-3,6-diaza-bicyclo[3.1.1]heptan-3-yl)pyridin-3-yl)quinazolin-4-amine]",23 nM,32 nM,12 nM,1980 nM,51 nM
"Cc1cc(Nc2nc(-c3ccc(N4CC5CC(C4)N5Cc4ccc(C#N)nc4)nc3)nc3ccccc23)n[nH]1 [Example 9, 5-((3-(5-(4-((5-methyl-1H-py-razol-3-yl)amino)quinazolin-2-yl)pyridin-2-yl)-3,6-diazabicyclo [3.1.1]heptan-6-yl)methyl)pico-linonitrile]",23 nM,30 nM,23 nM,822 nM,62 nM
Cc1ccc(CN2C3CC2CN(c2ccc(-c4nc(Nc5cc(C)[nH]n5)c5ccccc5n4)cn2)C3)cn1 [Example 10],10 nM,10 nM,9 nM,920 nM,39 nM
"Cc1cc(Nc2nc(-c3ccc(N4CC5CC(C4)N5Cc4cc(F)c(OC(C)C)c(F)c4)nc3)nc3ccccc23)n[nH]1 [Example 11, 2-(6-(6-(3,5-difluoro-4-isopropoxy-benzyl)-3,6-diazabicyclo [3.1.1]heptan-3-yl)pyridin-3-yl)-N-(5-methyl-1H-pyrazol-3-yl)quinazolin-4-amine]",119 nM,–,–,–,–
"COc1ccc(CN2C3CC2CN(c2ccc(-c4nc(Nc5cc(C)[nH]n5)c5ccccc5n4)cn2)C3)cc1C#N [Example 12, 2-methoxy-5-((3-(5-(4-((5-methyl-1H-pyrazol-3-yl)amino)quina-zolin-2-yl)pyridin-2-yl)-3,6-diazabicyclo [3.1.1]heptan-6-yl)methyl)benzo-nitrile]",49 nM,38 nM,15 nM,2540 nM,52 nM
"Cc1cc(Nc2nc(-c3ccc(N4CC5CC(C4)N5Cc4cnc[nH]4)nc3)nc3ccccc23)n[nH]1 [Example 13, 2-(6-(6-((1H-imidazol-5-yl)methyl)-3,6-diazabicyclo [3.1.1]heptan-3-yl)pyridin-3-yl)-N-(5-methyl-1H-pyrazol-3-yl)quinazolin-4-amine]",2450 nM,–,–,–,–
"COc1ccc(CN2C3CC2CN(c2ccc(-c4nc(Nc5cc(C)[nH]n5)c5ccccc5n4)cn2)C3)cc1 [Example 14, 2-(6-(6-(4-methoxybenzyl)-3,6-diaza-bicyclo[3.1.1]heptan-3-yl)pyridin-3-yl)-N-(5-methyl-1H-pyrazol-3-yl)quinazolin-4-amine]",22 nM,10 nM,11 nM,2700 nM,33 nM
"Cc1cc(Nc2nc(-c3ccc(N4CC5CC(C4)N5Cc4ccc(OC(C)C)nc4)nc3)nc3ccccc23)n[nH]1 [Example 15, 2-(6-(6-((6-iso-propoxypyridin-3-yl)methyl)-3,6-diazabicyclo [3.1.1]heptan-3-yl)pyridin-3-yl)-N-(5-methyl-1H-pyrazol-3-yl)quinazolin-4-amine]",30 nM,40 nM,24 nM,3100 nM,75 nM
"COc1ncc(CN2C3CC2CN(c2ccc(-c4nc(Nc5cc(C)[nH]n5)c5ccccc5n4)cn2)C3)cc1Cl [Example 16, 2-(6-(6-((5-chloro-6-methoxypyridin-3-yl)methyl)-3,6-diazabicyclo [3.1.1]heptan-3-yl)pyridin-3-yl)-N-(5-methyl-1H-pyrazol-3-yl)quinazolin-4-amine]",39 nM,60 nM,42 nM,4010 nM,127 nM
"Cc1cc(Nc2nc(-c3ccc(N4CC5CC(C4)N5Cc4ccc(NS(C)(=O)=O)cc4)nc3)nc3ccccc23)n[nH]1 [Example 21, N-(4-((3-(5-(4-((5-methyl-1H-pyrazol-3-yl)a-mino)quinazolin-2-yl)pyridin-2-yl)-3,6-diazabicyclo [3.1.1]heptan-6-yl)methyl)phenyl) methane-sulfonamide]",117 nM,–,–,–,–
"Cc1cc(Nc2nc(-c3ccc(N4CC5CC(C4)N5Cc4ccn(C)c(=O)c4)nc3)nc3ccccc23)n[nH]1 [Example 27, 1-methyl-4-((3-(5-(4-((5-methyl-1H-pyrazol-3-yl)amino)quina-zolin-2-yl)pyridin-2-yl)-3,6-diazabicyclo [3.1.1]heptan-6-yl)methyl)pyri-din-2(1H)-one]",159 nM,–,–,–,–
"COc1ccc(CN2C[C@H](C)N(c3ccc(-c4nc(Nc5cc(C)[nH]n5)c5ccccc5n4)cn3)C[C@H]2C)cn1 [Example 28, 2-(6-((2S,5R)-4-((6-methoxy-pyridin-3-yl)methyl)-2,5-di-methylpiperazin-1-yl)pyridin-3-yl)-N-(5-methyl-1H-pyrazol-3-yl)quinazolin-4-amine]",321 nM,–,–,–,–
COc1ccc(CN2C[C@@H](C)N(c3ccc(-c4nc(Nc5cc(C)[nH]n5)c5ccccc5n4)cn3)C[C@@H]2C)cn1 [Example 32],239 nM,–,–,–,–
"COc1ccc(CN2CCN(c3ccc(-c4nc(Nc5cc(C)[nH]n5)c5ccccc5n4)cn3)C[C@@H]2C)cn1 [Example 33, (S)-2-(6-(4-((6-methoxypyridin-3-yl)methyl)-3-methylpiperazin-1-yl)pyridin-3-yl)-N-(5-methyl-1H-pyrazol-3-yl)quinazolin-4-amine]",121 nM,–,–,–,–
